Like-named read-outs stand apart in the source and are kept apart here.
Experiments:
[1] = target: T1, hCA II (Homo sapiens, UniProt P00918); assay: hCA II inhibition, stopped-flow CO2 hydration assay; type: biochemical; conditions: stopped flow technique, mean from three assays
T1 construct: made in house
Protocol: An Applied Photophysics stopped‐flow instrument was used to assay the CA‐catalyzed CO2 hydration activity [52]. […] The uncatalyzed rates were determined in the same manner and subtracted from the total observed rates. Stock solutions of the inhibitor (0.1 mM) were prepared in distilled–deionized water, and dilutions up to 0.01 nM were done thereafter with the assay buffer. Inhibitor and enzyme solutions were preincubated together for 15 min at room temperature before the assay, to allow for the formation of the E–I complex. The inhibition constants were obtained by Nonlinear least‐squares methods using PRISM 3 and the Cheng‐Prusoff equation as reported earlier and represent the mean from at least three different determinations. All CA isoforms were recombinant proteins obtained in‐house, as reported earlier [54, 55, 56].

[2] = tested on: NSCL (non‐small‐cell lung cancer) subpanel; assay: NCI-60 one-dose screen, NSCL subpanel; type: cell-based, human; conditions: 10 µM, 48 h
Protocol: (§1) To explore the potential antiproliferative properties of the newly synthesized derivatives, they were submitted to the National Cancer Institute's (NCI) Developmental Therapeutics Program (DTP) for screening at 10 μM in a panel of approximately 60 human cancer cell lines from different cancer types. The results are reported as the growth percentage (GP), which is the growth of the treated cells with each compound for 48 h compared to the untreated controls (Figure 2). […] The initial screening results are summarized in Figure 2, and the mean GP values of each subpanel are depicted in Figure 3. The full reports are compiled in the Supplementary Section.
(§2) All the reported selenoesters (1–6) were submitted to the DTP of NCI. First, they were screened at a single dose (10^−5 M) against a panel of 60 cancer cell lines derived from different tumor types following the methodology available (https://dtp.cancer.gov/discovery_development/nci-60/methodology.htm). As all the compounds satisfied the threshold inhibition criteria established, they were further assessed at five concentrations (0.01, 0.1, 1, 10, and 100 µM) against the same cell panel to obtain their corresponding dose–response curves and three antitumor parameters (GI50, TGI, and LC50) by regression. GraphPad Prism 7.0 Software was used to represent the corresponding graphs.

[3] = tested on: Colon subpanel; assay: NCI-60 one-dose screen, colon subpanel; type: cell-based, human; conditions: 10 µM, 48 h
Protocol: as §1, §2

[4] = tested on: Ovarian subpanel; assay: NCI-60 one-dose screen, ovarian subpanel; type: cell-based, human; conditions: 10 µM, 48 h
Protocol: as §1, §2

[5] = tested on: Prostate subpanel; assay: NCI-60 one-dose screen, prostate subpanel; type: cell-based, human; conditions: 10 µM, 48 h
Protocol: as §1, §2

[6] = tested on: HCC‐2998‐resistant colon cancer cells; assay: NCI-60 one-dose screen, HCC-2998; type: cell-based, human; conditions: 10 µM, 48 h
Protocol: as §1, §2

[7] = tested on: NCI‐60 human cancer cell lines; assay: NCI-60 five-dose assay, whole panel; type: cell-based; conditions: 48 h, bound for every subpanel
Protocol: (§3) All the compounds were selected for further testing since they fulfilled the set NCI one‐dose screening parameters for threshold inhibition. They were tested at five different concentrations (0.01, 0.1, 1, 10, and 100 μM) for 48 h against the same cell line panel and the dose–response curves along with three response parameters (50% growth inhibitory concentration [GI50], the 50% lethal concentration [LC50], and the total growth inhibition [TGI]) were calculated for every cancer cell line. The full reported data and corresponding graphs are compiled in Supporting Information S1. Average values of GI50, TGI, and LC50 values of all the reported selenoesters in all the subpanels are represented in Figure 4.
as §2

[8] = tested on: CNS subpanel; assay: NCI-60 five-dose assay, CNS subpanel; type: cell-based; conditions: Homo sapiens, 48 h; for GI50: read-out: Mean GI50 CNS; for LC50: read-out: Mean LC50 CNS
Protocol: as §3, §2

[9] = tested on: Ovarian subpanel; assay: NCI-60 five-dose assay, ovarian subpanel; type: cell-based; conditions: Homo sapiens, 48 h; for GI50: read-out: Mean GI50 Ovarian; for LC50 (50% lethal concentration): read-out: Mean LC50 Ovarian
Protocol: as §3, §2

[10] = tested on: Prostate subpanel; assay: NCI-60 five-dose assay, prostate subpanel; type: cell-based, human; conditions: 48 h; for GI50 / CC50: Homo sapiens; for GI50: read-out: Mean GI50 Prostate; for CC50: read-out: Mean LC50 Prostate
Protocol: as §3, §2

[11] = tested on: Breast subpanel; assay: NCI-60 five-dose assay, breast subpanel; type: cell-based; conditions: Homo sapiens, 48 h; for GI50: read-out: Mean GI50 Breast; for LC50: read-out: Mean LC50 Breast
Protocol: as §3, §2

[12] = tested on: L. infantum promastigotes; assay: Leishmanicidal activity against promastigotes (MTT), L. infantum; type: cell-based, Leishmania infantum
Protocol: (§4) The synthesized compounds were tested for their antileishmanial activity against promastigotes of L. major and L. infantum at four concentrations (1, 10, 50, and 100 µM) for 48 h using the 3‐(4,5‐dimethylthiazol‐2‐yl)‐2,5‐diphenyltetrazolium bromide (MTT) assay. In this evaluation, the activity was expressed in IC50 (concentration inhibiting the parasite growth by 50%). […] The CC50 was defined as the concentration of selenoesters that led to a reduction in the viability of the macrophages, such that only 50% of the cells survived when compared to the control group. This cell line, derived from the blood of a human with acute monocytic leukemia, was chosen as it has been widely reported that it resembles tissue macrophages to various extents as well as supports the infection by numerous Leishmania promastigotes. The selectivity indexes (SIs) were calculated as the ratio between toxicity on macrophages (THP‐1 cells)/antileishmanial activity. The data for standard control drugs (miltefosine and paromomycin) are included for comparison purposes.
The promastigotes of L. major (clone VI, MHOM/IL/80/Friendlin) and L. infantum (BCN‐150) were grown at 26°C under continuous shaking in M199 1× medium (Sigma, USA). This media was supplemented with 10% of heat‐inactivated fetal bovine serum (FBS) (Gibco, USA), 0.0005% (w/v) hemin, 0.1 mM adenine, 25 mM HEPES (pH 7.2), 0.0001% (w/v) biotin, and 100 UI/mL penicillin and […] streptomycin (Gibco, USA).
The antileishmanial activity of the reported selenoesters was determined using the MTT assay as previously described during the logarithmic growth phase of the tested promastigotes of L. major and L. infantum. Briefly, the Leishmania parasites were seeded into 96‐well flat‐bottom plates (3 × 10^5 parasites/100 µL) and treated with four different concentrations ranging between 1 and 100 µM of each selenoester at 26°C for 48 h. Afterwards, 20 µL of MTT (5 mg/mL in PBS) was added to each well and incubated for 4 h under the same conditions. Then, 80 µL/well of DMSO was added to dissolve the resultant formazan crystals. The absorbances were determined on a Multiskan EX photometric plate reader for microplates at 540 nm. Three independent experiments performed in triplicate were carried out for each compound, and OriginPro 8.5.1 Software was used to calculate the IC50 values by fitting the data to a dose–inhibition sigmoid curve.

[13] = THP-1 cytotoxicity (MTT, PMA-differentiated macrophages); type: cell-based, human; conditions: human, THP-1 cells differentiated into macrophages with PMA, mean ± SD
Protocol: as §4
THP‐1 cells were seeded at a concentration of 8 × 10^4 cells per well in 96‐well plates and incubated with phorbol 12‐myristate 13‐acetate (PMA) (50 ng/mL) for 72 h (37°C and 5% CO2) to differentiate them into macrophages. After that, the culture medium was removed and the cells were treated with the reported selenoesters at different increasing concentrations ranging from 1 to 200 µM for 48 h at 37°C and 5% of CO2. Macrophages treated with DMSO (1%) were used as controls, and the compounds were dissolved in DMSO at a stock concentration of 10^−2 M. Afterward, the MTT assay was performed. Data were obtained from three independent experiments performed in triplicate. The absorbance was measured at 550 nm using a MultiskanEX photometric plate reader for microplates. The CC50 values were calculated using OriginPro 8.5.1. software by nonlinear curve fitting. SIs were calculated as the ratio of the CC50 values determined for the macrophages and the IC50 values obtained in each Leishmania promastigote. GraphPad Prism 7.0 Software was used to obtain the corresponding graphs.

[14] = Leishmania infantum, 48 h, mean ± SD, read-out: L. infantum IC50
[15] = 48 h, mean ± SD, read-out: L. infantum IC50
[16] = read-out: L. infantum IC50, 48 h, mean ± SD

Row | SMILES | Ki [1] | average growth cell value, NSCL [2] | average growth cell value, Colon [3] | average growth cell value, Ovarian [4] | average growth cell value, Prostate [5] | behaviour in HCC‐2998 [6] | mean TGI values against all the subpanels tested [7] | GI50 [8] | LC50 [8] | GI50 [9] | LC50 (50% lethal concentration) [9] | GI50 [10] | CC50 [10] | GI50 [11] | LC50 [11] | IC50 [12, 14] | IC50 [12, 15] | IC50 [12, 16] | CC50 at 48 h [13] | other results
1 | N#Cc1ccc(NC(=O)C[Se]C(=O)c2ccccc2)cc1C(F)(F)F [Compound 1, Se‐(2‐((4‐cyano‐3‐(trifluoromethyl)phenyl)amino)‐2‐oxoethyl)benzoselenoate] | 80.4 µM | -96.68% | -95.24% | -92.77% | -95.47% | susceptible | below 5 µM | 1.37 µM | 5.64 µM | 1.77 µM | 6.4 µM | 1.54 µM | 5.91 µM | 1.61 µM | 8.02 µM | 29.2 ± 2.65 µM |  |  |  | 
2 | O=C(C[Se]C(=O)c1ccccc1)Nc1cccc(OC(F)(F)F)c1 [Compound 3, Se‐(2‐oxo‐2‐((3‐(trifluoromethoxy)phenyl)amino)ethyl)benzoselenoate] | 82.4 µM | -57.44% | 25.15% | -50.78% | -48.28% |  |  | 2.07 µM | 9 µM | 2.45 µM | 18.2 µM | 2.16 µM | 12.6 µM | 2.62 µM | 22.6 µM | 6 to 10 µM | 6.59 ± 3.73 µM | < 10 µM | ≥ 200 µM | 
3 | O=C(C[Se]C(=O)c1ccco1)Nc1cccc(OC(F)(F)F)c1 [Compound 6, Se‐(2‐oxo‐2‐((3‐(trifluoromethoxy)phenyl)amino)ethyl)furan‐2‐carboselenoate] | 8.2 µM | -12.41% | 31.61% | 5.95% | -15.23% |  |  | 3.08 µM |  | 8.37 µM |  | 5.38 µM | 100 µM | 3.08 µM |  | 6 to 10 µM | 5.99 ± 2.33 µM | < 10 µM | 38.7 ± 6.71 µM | GI50 ([7]; Homo sapiens, read-out: mean GI50 values in all the cancer subpanels tested): < 10 µM; cytotoxic activity (LC50) in the prostate cancer subpanel ([10]; five-dose): devoid of activity
4 | O=C(C[Se]C(=O)c1ccco1)Nc1ccc([N+](=O)[O-])c(C(F)(F)F)c1 [Compound 5, Se‐(2‐((4‐nitro‐3‐(trifluoromethyl)phenyl)amino)‐2‐oxoethyl)furan‐2‐carboselenoate] | 83.3 µM | -42.46% | -17.82% | -38.57% | -27.89% | susceptible |  | 2.04 µM |  | 2.28 µM |  | 1.85 µM | 54.4 µM | 2.01 µM |  | 32.9 ± 8.25 µM |  |  | 108 ± 5.53 µM | 
5 | O=C(C[Se]C(=O)c1ccccc1)Nc1ccc([N+](=O)[O-])c(C(F)(F)F)c1 [Compound 2, Se‐(2‐((4‐nitro‐3‐(trifluoromethyl)phenyl)amino)‐2‐oxoethyl)benzoselenoate] | 50.4 µM | -96.34% | -81.88% | -92.98% | -94.40% | susceptible | below 5 µM | 1.17 µM | 5.17 µM | 1.57 µM | 5.83 µM | 1.44 µM | 5.66 µM | 1.48 µM | 7.68 µM | 29.4 ± 2.1 µM |  |  |  | 

Source: PMC12676205, “New Se‐Compounds With Antileishmanial, Antitumor, and Carbonic Anhydrase Inhibitory Properties” (Archiv Der Pharmazie, 2025)
